Assay results from patent publication US10722441B2, “Noreugenin glycoside derivatives” (Universitaet Hamburg, priority 2016, dated 2020).

Test system: reconstituted human epidermis with melanocytes of phototype II
Assay: Tanning properties in reconstituted human epidermis with melanocytes; semiquantification of melanin content by Fontana-Masson staining and image analysis
Format: cell-based
Conditions: for Change of melanin content / pigmentation, in words: IBMX 100 μM vs untreated controls
Experimental: The epidermis with melanocytes of phototype II is reconstituted in an air/liquid interface system (directly at the air-liquid interface) in a culture medium from day 0 to day 4 for a complete differentiation. The culture is then continued from day 4 to day 14 in this same medium but without bovine pituitary extract (BPE). The test preparations were administered in the […] from day 4 to day 14. The medium and the test preparations are each added on day 4, day 7 and day 11. DMSO and THF are tested in parallel and IBMX (100 μM) is used as the positive reference.
After embedding in paraffin, a Fontana-Masson staining of the tissue sections is performed. The microscope slides are covered with a special medium and examined using a light microscope of the Leica DM2000 type with a digital camera. After staining, images are recorded and a quantification is performed by image analysis (on the basis of 12 images). For quantification of the melanin content in each image, the Leica QWin3 software is used. Two measurements are carried out. The first measurement gives the total intensity of the coloration, i.e., a lighter or darker melanin is reflected. The second measurement relates to the marked image area, i.e., the area of the epidermis containing the melanin. In these measurements all cell layers except the stratum corneum are included.
The procedure used was the same as that carried out in example 1 and 2. After determining the cytotoxic concentrations, substance (Ia) is tested at 8 μM, substance (Ib) at 40 μM (solvent: 0.1% THF) and substance (IIa) at 20 μM (solvent: 0.1% DMSO).
After determining the cytotoxic concentrations of these substances, substance (Ib) is tested at 40 μM in DMSO (0.1%), substance (IIa) is tested at 20 μM in DMSO (0.1%), the mixture of (Ib)/(IIa) is tested at 40/20 μM in DMSO (0.1% and rhamnose is tested at 40 μM in THF (0.2%).

[1] = first experiment, Ia 8 μM, Ib 40 μM vs THF, IIa 20 μM vs DMSO
[2] = second experiment, Ib 40 μM and IIa 20 μM vs DMSO, mixture 40/20 μM, rhamnose 40 μM

Row | SMILES | Change of melanin content / pigmentation, in words [1] | Change of melanin content / pigmentation, in words [2] | further results
1 | CC(C)Cn1c(=O)n(C)c(=O)c2[nH]cnc21 [IBMX, reference compound] | significant increase | significant increase | Quantification after Fontana-Masson staining, relative to the untreated controls (first experiment, IBMX 100 μM, positive reference, day 4 to day 14): 152% (p < 0.05); Quantification after Fontana-Masson staining, relative to the untreated controls (second experiment, IBMX 100 μM, positive reference): 150% (p < 0.01)
2 | C[C@H](O)[C@H](O)[C@@H](O)[C@@H](O)C=O [Rhamnose, rhamnose, reference compound] | – | tendency to increase melanin synthesis is only faintly pronounced | Quantification after Fontana-Masson staining, relative to the untreated controls (second experiment, 40 μM in THF (0.2%)): 109%
3 | Cc1cc(=O)c2c(O[C@@H]3O[C@@H](C)[C@H](O)[C@@H](O)[C@H]3O)cc(O)cc2o1 [Substance (IIa), 5-[(6-deoxy-α-L-mannopyranosyl)oxy]-7-hydroxy-2-methyl-4H-1-benzopyran-4-one] | significant increase | significant increase | Quantification after Fontana-Masson staining, relative to the untreated controls (first experiment, 20 μM, solvent 0.1% DMSO, day 4 to day 14): 143% (p < 0.05); Quantification after Fontana-Masson staining, relative to the untreated controls (second experiment, 20 μM in DMSO (0.1%)): 147% (p < 0.05)
4 | Cc1cc(=O)c2c(O)cc(O[C@@H]3O[C@H](CO)[C@@H](O)[C@H](O)[C@H]3O)cc2o1 [Substance (Ia), 7-(β-D-glucopyranosyloxy)-5-hydroxy-2-methyl-4H-1-benzopyran-4-one] | unambiguous tendency to increase pigmentation | – | Quantification after Fontana-Masson staining, relative to the untreated controls (first experiment, 8 μM, day 4 to day 14): 125%
5 | Cc1cc(=O)c2c(O)cc(O[C@@H]3O[C@@H](C)[C@H](O)[C@@H](O)[C@H]3O)cc2o1 [Substance (Ib), 7-[(6-deoxy-α-L-mannopyranosyl)oxy]-5-hydroxy-2-methyl-4H-1-benzopyran-4-one] | significant increase | significant increase | Quantification after Fontana-Masson staining, relative to the untreated controls (first experiment, 40 μM, solvent 0.1% THF, day 4 to day 14): 174% (p < 0.05); Quantification after Fontana-Masson staining, relative to the untreated controls (second experiment, 40 μM in DMSO (0.1%)): 167% (p < 0.01)
